Earlier results as cited in US20230301939A1, “NOVEL FO[…]” (Neurocentrx Pharma Ltd., priority 2018, published 2023).
Like-named read-outs stand apart in the source and are kept apart here.

Legend:
[1] = system: mice
[2] = molecular target: T1, a7 nicotinic acetylcholine receptor (Rattus norvegicus, UniProt Q05941); conditions: for Negative allosteric modulator activity in words: KXa7R1 cell line, ketamine at the same concentrations (<1 μM)
T1 construct: expressed in transfected cells; host or cells: KXa7R1 cell line (HEK293)

[3] = in vivo

T1 sequence (Q05941 23-502): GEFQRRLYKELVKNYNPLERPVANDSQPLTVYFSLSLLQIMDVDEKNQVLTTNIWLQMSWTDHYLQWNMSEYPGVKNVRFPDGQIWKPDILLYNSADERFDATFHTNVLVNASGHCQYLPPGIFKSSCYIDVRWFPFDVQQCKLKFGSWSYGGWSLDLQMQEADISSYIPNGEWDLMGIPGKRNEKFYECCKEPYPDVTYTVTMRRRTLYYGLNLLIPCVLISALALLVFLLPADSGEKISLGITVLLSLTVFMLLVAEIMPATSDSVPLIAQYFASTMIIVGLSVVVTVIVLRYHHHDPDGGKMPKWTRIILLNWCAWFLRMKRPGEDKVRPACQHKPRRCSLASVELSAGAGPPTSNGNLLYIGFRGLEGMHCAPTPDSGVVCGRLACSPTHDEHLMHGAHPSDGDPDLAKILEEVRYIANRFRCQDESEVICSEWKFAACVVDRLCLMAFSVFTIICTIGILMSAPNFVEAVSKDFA

## N[C@@]1(c2ccccc2Cl)CCC[C@@H](O)C1=O [(2R,6R)-HNK]
[1]
  Antidepressant(-like) effect: ketamine-type antidepressant-like effects

## CNC1(c2ccccc2Cl)CCCCC1=O (centres unmarked) [Ketamine, ketamine]
intramuscularly
  Bioavailability: 93%
  Time to peak plasma concentrations: 5 to 15 min
intranasally
  Bioavailability: 8-50%
intravenously
  Time to peak plasma concentrations: within a minute
Oral route
  Bioavailability: 17-20%
orally
  Duration of action in a clinical setting: 4 to 6 h
  Time to peak plasma concentrations: 30 min
rectally
  Bioavailability: 30%
[2]
  Negative allosteric modulator activity in words: inactive

## CN[C@@]1(c2ccccc2Cl)CCCCC1=O [arketamine]
[1]
  Antidepressant(-like) effect: greater and lasted longer than that of esketamine

## NC1(c2ccccc2Cl)CCC=CC1=O (centres unmarked) [dehydronorketamine]
[2]; KXa7R1 cell line (HEK293 cells transfected with rat nicotinic acetylcholine receptor genes)
  IC50: 55 nM
[2]
  Negative allosteric modulator activity in words: nanomolar potencies

## NC1(c2ccccc2Cl)CCCC(O)C1=O (centres unmarked) [hydroxynorketamine]
[2]
  Negative allosteric modulator activity in words: nanomolar potencies

## NC1(c2ccccc2Cl)CCCCC1=O (centres unmarked) [norketamine]
[3]
  Potency as an anesthetic relative to ketamine: one-third to one-fifth as potent
Following oral administration of ketamine
  Plasma levels relative to ketamine: three times higher
[2]
  Negative allosteric modulator activity in words: nanomolar potencies
